17 molecules from patent publication US12310975B2, “Modulators of BCL6 proteolysis and associated methods of use” (Arvinas Operations, Inc., priority 2019, dated 2025) can be followed below.

In general, Dmax refers to the greatest extent of degradation seen. Low readings indicate shallow degradation, high ones deep degradation. The IC50 is the point on the concentration scale where inhibition reaches its midpoint. A lower IC50 goes with inhibition by little substance.

The experiment addresses BCL6 (Homo sapiens (Human), UniProt P41182). Nature of the experiment: Immunofluorescence high content imaging of BCL6 degradation in T47D cells. In kind it is cell-based. The settings on record: T47D cells. Summed up: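 BCL6 loss was quantified by high-content imaging (10×, 4 fields/well) after PFA fixation and anti-BCL6/Alexa-488 staining with Hoechst nuclear and CellMask counterstains. Compounds were applied for 3 days to T47D breast cancer cells in RPMI-10% FBS, 11 points, 3-fold steps, top 0.1 or 1 μM.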
For the molecule `CNC(=O)COc1cc2cc(Nc3nc(N4CCN(CC5CCN(c6ccc7c(c6)C(=O)N(C6CCC(=O)NC6=O)C7=O)CC5)CC4)ncc3Cl)ccc2n(C2CC2)c1=O` (stereo not drawn) [compound 323, 2-{[6-({5-chloro-2-[4-({1-[2-(2,6-dioxopiperidin-3-yl)-1,3-dioxo-2,3-dihydro-1H-isoindol-5-yl]piperidin-4-yl}methyl)piperazin-1-yl]pyrimidin-4-yl}amino)-1-cyclopropyl-2-oxo-1,2-dihydroquinolin-3-yl]oxy}-N-methylacetamide], the Dmax was ≥ 70% and the IC50 is < 10 nM.
In the same order, the values of `CCCCn1c(=O)c(OCC(=O)NC)cc2cc(Nc3nc(N4CCC[C@H](COc5cccc6c5C(=O)N(C5CCC(=O)NC5=O)C6=O)C4)ncc3Cl)ccc21` (stereo partly drawn) [compound 324, 2-{[1-butyl-6-({5-chloro-2-[(3S)-3-({[2-(2,6-dioxopiperidin-3-yl)-1,3-dioxo-2,3-dihydro-1H-isoindol-4-yl]oxy}methyl)piperidin-1-yl]pyrimidin-4-yl}amino)-2-oxo-1,2-dihydroquinolin-3-yl]oxy}-N-methylacetamide] are 50 to 70% and < 10 nM.
The like results for `CNC(=O)COc1cc2cc(Nc3nc(N4CCN(CC5CCN(c6cccc(C(=O)NC7CCC(=O)NC7=O)c6OC)CC5)CC4)ncc3Cl)ccc2n(C)c1=O` (stereo not drawn) [compound 325, 3-[4-({4-[5-chloro-4-({1-methyl-3-[(methylcarbamoyl)methoxy]-2-oxo-1,2-dihydroquinolin-6-yl}amino)pyrimidin-2-yl]piperazin-1-yl}methyl)piperidin-1-yl]-N-(2,6-dioxopiperidin-3-yl)-2-methoxybenzamide] were, in that order, 50 to 70% and < 10 nM.
In the same order, the values of `CCN(C1CCN(c2ccc3c(c2)C(=O)N(C2CCC(=O)NC2=O)C3=O)CC1)C1CCN(c2ncc(Cl)c(Nc3ccc4c(c3)cc(OCC(=O)NC)c(=O)n4C)n2)CC1` (stereo not drawn) [compound 326, 2-{[6-({5-chloro-2-[4-({1-[2-(2,6-dioxopiperidin-3-yl)-1,3-dioxo-2,3-dihydro-1H-isoindol-5-yl]piperidin-4-yl}(ethyl)amino)piperidin-1-yl]pyrimidin-4-yl}amino)-1-methyl-2-oxo-1,2-dihydroquinolin-3-yl]oxy}-N-methylacetamide] are 50 to 70% and 10 to 50 nM.
In turn, `CCCN(C1CCN(c2ccc3c(c2)C(=O)N(C2CCC(=O)NC2=O)C3=O)CC1)C1CCN(c2ncc(Cl)c(Nc3ccc4c(c3)cc(OCC(=O)NC)c(=O)n4C)n2)CC1` (stereo not drawn) [compound 327, 2-{[6-({5-chloro-2-[4-({1-[2-(2,6-dioxopiperidin-3-yl)-1,3-dioxo-2,3-dihydro-1H-isoindol-5-yl]piperidin-4-yl}(propyl)amino)piperidin-1-yl]pyrimidin-4-yl}amino)-1-methyl-2-oxo-1,2-dihydroquinolin-3-yl]oxy}-N-methylacetamide] had a Dmax of 50 to 70% and an IC50 of 10 to 50 nM.
In the same order, the values of `CCn1c(=O)c(OCC(=O)NC)cc2cc(Nc3nc(N4CCC(OC5CN(C6CN(c7ccc8c(c7)C(=O)N(C7CCC(=O)NC7=O)C8=O)C6)C5)CC4)ncc3Cl)ccc21` (stereo not drawn) [compound 328, 2-{[6-({5-chloro-2-[4-({1′-[2-(2,6-dioxopiperidin-3-yl)-1,3-dioxo-2,3-dihydro-1H-isoindol-5-yl]-[1,3′-biazetidin]-3-yl}oxy)piperidin-1-yl]pyrimidin-4-yl}amino)-1-ethyl-2-oxo-1,2-dihydroquinolin-3-yl]oxy}-N-methylacetamide] are 50 to 70% and < 10 nM.
On to `CCn1c(=O)c(OCC(=O)NC)cc2cc(Nc3nc(N4CCC(OCC5CCN(c6ccc7c(c6)C(=O)N(C6CCC(=O)NC6=O)C7=O)CC5)CC4)ncc3Cl)ccc21` (stereo not drawn) [compound 329, 2-{[6-({5-chloro-2-[4-({1-[2-(2,6-dioxopiperidin-3-yl)-1,3-dioxo-2,3-dihydro-1H-isoindol-5-yl]piperidin-4-yl}methoxy)piperidin-1-yl]pyrimidin-4-yl}amino)-1-ethyl-2-oxo-1,2-dihydroquinolin-3-yl]oxy}-N-methylacetamide], for which the Dmax is < 50% and the IC50 was < 10 nM.
The like results for `CCn1c(=O)c(OCC(=O)NC)cc2cc(Nc3nc(N4CCC(OCC5CCN(c6cccc7c6C(=O)N(C6CCC(=O)NC6=O)C7=O)CC5)CC4)ncc3Cl)ccc21` (stereo not drawn) [compound 330, 2-{[6-({5-chloro-2-[4-({1-[2-(2,6-dioxopiperidin-3-yl)-1,3-dioxo-2,3-dihydro-1H-isoindol-4-yl]piperidin-4-yl}methoxy)piperidin-1-yl]pyrimidin-4-yl}amino)-1-ethyl-2-oxo-1,2-dihydroquinolin-3-yl]oxy}-N-methylacetamide] were, in that order, 50 to 70% and < 10 nM.
In the same order, the values of `CCn1c(=O)c(OCC(=O)NC)cc2cc(Nc3nc(N4CCC(COC5CCN(c6ccc7c(c6)C(=O)N(C6CCC(=O)NC6=O)C7=O)CC5)CC4)ncc3Cl)ccc21` (stereo not drawn) [compound 331, 2-({6-[(5-chloro-2-{4-[({1-[2-(2,6-dioxopiperidin-3-yl)-1,3-dioxo-2,3-dihydro-1H-isoindol-5-yl]piperidin-4-yl}oxy)methyl]piperidin-1-yl}pyrimidin-4-yl)amino]-1-ethyl-2-oxo-1,2-dihydroquinolin-3-yl}oxy)-N-methylacetamide] are < 50% and < 10 nM.
As for `CCn1c(=O)c(OCC(=O)NC)cc2cc(Nc3nc(N4CCC(COC5CCN(c6cccc7c6C(=O)N(C6CCC(=O)NC6=O)C7=O)CC5)CC4)ncc3Cl)ccc21` (stereo not drawn) [compound 332, 2-({6-[(5-chloro-2-{4-[({1-[2-(2,6-dioxopiperidin-3-yl)-1,3-dioxo-2,3-dihydro-1H-isoindol-4-yl]piperidin-4-yl}oxy)methyl]piperidin-1-yl}pyrimidin-4-yl)amino]-1-ethyl-2-oxo-1,2-dihydroquinolin-3-yl}oxy)-N-methylacetamide], the greatest degradation seen (Dmax) fell in the range of 50 to 70% and the IC50 was < 10 nM.
In the same order, the values of `CNC(=O)COc1cc2cc(Nc3nc(N4CCN(CC5CCN(c6ccc7c(c6)C(=O)N(C6CCC(=O)NC6=O)C7=O)CC5)CC4)ncc3Cl)ccc2n(CCC2CC2)c1=O` (stereo not drawn) [compound 333, 2-{[6-({5-chloro-2-[4-({1-[2-(2,6-dioxopiperidin-3-yl)-1,3-dioxo-2,3-dihydro-1H-isoindol-5-yl]piperidin-4-yl}methyl)piperazin-1-yl]pyrimidin-4-yl}amino)-1-(2-cyclopropylethyl)-2-oxo-1,2-dihydroquinolin-3-yl]oxy}-N-methylacetamide] are 50 to 70% and < 10 nM.
With `CNC(=O)COc1cc2cc(Nc3nc(N4CCC[C@H](COc5cccc6c5C(=O)N(C5CCC(=O)NC5=O)C6=O)C4)ncc3Cl)ccc2n(CCC2CC2)c1=O` (stereo partly drawn) [compound 334, 2-{[6-({5-chloro-2-[(3S)-3-({[2-(2,6-dioxopiperidin-3-yl)-1,3-dioxo-2,3-dihydro-1H-isoindol-4-yl]oxy}methyl)piperidin-1-yl]pyrimidin-4-yl}amino)-1-(2-cyclopropylethyl)-2-oxo-1,2-dihydroquinolin-3-yl]oxy}-N-methylacetamide], the greatest degradation seen (Dmax) is ≥ 70% and the IC50 was < 10 nM.
In the same order, the values of `CNC(=O)COc1cc2cc(Nc3nc(N4CCN(C(C)C5CCN(c6ccc7c(c6)C(=O)N(C6CCC(=O)NC6=O)C7=O)CC5)CC4)ncc3Cl)ccc2n(C)c1=O` (stereo not drawn) [compound 335, 2-{[6-({5-chloro-2-[4-(1-{1-[2-(2,6-dioxopiperidin-3-yl)-1,3-dioxo-2,3-dihydro-1H-isoindol-5-yl]piperidin-4-yl}ethyl)piperazin-1-yl]pyrimidin-4-yl}amino)-1-methyl-2-oxo-1,2-dihydroquinolin-3-yl]oxy}-N-methylacetamide] are 50 to 70% and < 10 nM.
Consider `CNC(=O)COc1cc2cc(Nc3nc(N4CCC[C@H](COc5cccc6c5C(=O)N(C5CCC(=O)NC5=O)C6=O)C4)ncc3Cl)ccc2n(C2CC2)c1=O` (stereo partly drawn) [compound 336, 2-{[6-({5-chloro-2-[(3S)-3-({[2-(2,6-dioxopiperidin-3-yl)-1,3-dioxo-2,3-dihydro-1H-isoindol-4-yl]oxy}methyl)piperidin-1-yl]pyrimidin-4-yl}amino)-1-cyclopropyl-2-oxo-1,2-dihydroquinolin-3-yl]oxy}-N-methylacetamide], for which the Dmax lay within 50 to 70% and the IC50 lay within 10 to 50 nM.
For `CCC(C1CCN(c2ccc3c(c2)C(=O)N(C2CCC(=O)NC2=O)C3=O)CC1)N1CCN(c2ncc(Cl)c(Nc3ccc4c(c3)cc(OCC(=O)NC)c(=O)n4C)n2)CC1` (stereo not drawn) [compound 337, 2-{[6-({5-chloro-2-[4-(1-{1-[2-(2,6-dioxopiperidin-3-yl)-1,3-dioxo-2,3-dihydro-1H-isoindol-5-yl]piperidin-4-yl}propyl)piperazin-1-yl]pyrimidin-4-yl}amino)-1-methyl-2-oxo-1,2-dihydroquinolin-3-yl]oxy}-N-methylacetamide], the Dmax is < 50%.
Consider `CCCC(C1CCN(c2ccc3c(c2)C(=O)N(C2CCC(=O)NC2=O)C3=O)CC1)N1CCN(c2ncc(Cl)c(Nc3ccc4c(c3)cc(OCC(=O)NC)c(=O)n4C)n2)CC1` (stereo not drawn) [compound 338, 2-{[6-({5-chloro-2-[4-(1-{1-[2-(2,6-dioxopiperidin-3-yl)-1,3-dioxo-2,3-dihydro-1H-isoindol-5-yl]piperidin-4-yl}butyl)piperazin-1-yl]pyrimidin-4-yl}amino)-1-methyl-2-oxo-1,2-dihydroquinolin-3-yl]oxy}-N-methylacetamide], for which the Dmax was < 50% and the IC50 is < 10 nM.
The like results for `CNC(=O)COc1cc2cc(Nc3nc(N4CCN(CC5(F)CCN(c6ccc7c(c6)C(=O)N(C6CCC(=O)NC6=O)C7=O)CC5)CC4)ncc3Cl)ccc2n(C)c1=O` (stereo not drawn) [compound 339, 2-{[6-({5-chloro-2-[4-({1-[2-(2,6-dioxopiperidin-3-yl)-1,3-dioxo-2,3-dihydro-1H-isoindol-5-yl]-4-fluoropiperidin-4-yl}methyl)piperazin-1-yl]pyrimidin-4-yl}amino)-1-methyl-2-oxo-1,2-dihydroquinolin-3-yl]oxy}-N-methylacetamide] were, in that order, 50 to 70% and < 10 nM.
